Results: BindingDB's records for patent US20250019387 (Frontier Medicines, 2025)

Biological target: GTPase KRas [G12C,C51S,C80L,C118S]/RAF proto-oncogene serine/threonine-protein kinase (Homo sapiens, UniProt P01116, C118S/C51S/C80L/G12C)
Test: Inhibition of KRASG12C and cRAF Binding
Procedure: Compounds were diluted in 100% DMSO and each compound concentration was spotted at 200 nl/well onto low volume, white 384 well plates. […] Plates were incubated for 19-20 hours. A mixture of RBD and the AlphaScreen streptavidin donor and glutathione acceptor beads diluted in 25 mM Hepes, pH 7.4, 150 mM NaCl, 5 mM MgCl2, 0.01% TritonX-100 and 2% DMSO was then added at 10 ul/well and incubated for 60-90 minutes before the samples were read for emission at 570 nm after excitation of the donor beads at 680 nm. All incubations were performed at room temperature. […] IC50s were determined using nonlinear regression fit of [inhibitor]vs. response (4 parameters).

GTPase KRas [G12C,C51S,C80L,C118S]/RAF proto-oncogene serine/threonine-protein kinase, sequence (P01116 1-169 G12C/C51S/C80L/C118S): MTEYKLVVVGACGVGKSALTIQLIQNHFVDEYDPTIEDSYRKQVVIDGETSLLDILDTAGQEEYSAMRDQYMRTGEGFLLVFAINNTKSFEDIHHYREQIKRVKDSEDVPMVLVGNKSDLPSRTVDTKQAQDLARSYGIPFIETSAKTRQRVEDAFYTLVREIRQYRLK

## C=CC(=O)[C@]12CCN(c3nc(OC[C@@H]4CCCN4C)nc4c3CCN(c3cccc5cccc(Cl)c35)C4)C[C@H]1C2 [US20250019387, Example 44]
  IC50: < 10 nM
